Source: patent publication US20260063641A1, “COMPOSITIONS AND METHODS FOR LABELING AND DETECTING BINDING PARTNERS” (UNIVERSITY OF UTAH RESEARCH FOUNDATION, priority 2022, published 2026)
“Also recorded” adds a separate entry of the source.

Experiments:
[1] = target: BRD2, BRD3 and BRD4 (BET proteins) and interactors (Homo sapiens, UniProt P25440); assay: BioTAC proximity labeling with label-free mass spectrometry-based proteomics of streptavidin-enriched biotinylated proteins; format: cell-based; conditions: 1 μM, 4 hr timepoint
Method: (§1) Having determined that the BioTAC system could identify BRD4 as a (+)-JQ1 target in focused screens, it was evaluated as an unbiased target-ID method. To identify direct binders of (+)-JQ1 proteome-wide, BioTAC proximity labelling experiments were performed as described above, followed by label-free mass spectrometry-based proteomic analysis of biotinylated proteins enriched following a 30 minute treatment with 100 μM biotin plus DMSO or 1 μM Cpd1, and then 1 μM Cpd1 off-competed by pre-treatment with 10 μM free (+)-JQ1.
(§2) Having established conditions for determining the primary targets of small molecules using the BioTAC system, its utility in reading out the interactome sphere of (+)-JQ1 bound BET-proteins was next investigated. An advantage of the BioTAC system is the relatively long half-life of the activated biotin-AMP intermediate generated by TurboID, allowing the labelling radius to be increased up to 35 nm by extending the labelling time. To quantitively evaluate the ability of the BioTAC system to successfully enrich the known interactome of (+)-JQ1 bound BET proteins, time course BioTAC proximity labelling experiments were performed at the 1 h and 4 h time points, and evaluated streptavidin-enriched biotinylated proteins using mass spectrometry-based proteomic analysis (FIG. 2A-C, FIG. 6). Longer time points correlated with a greater number of proteins meeting the significance cut-offs (defined as FC>2, P<0.05) for both enrichment in Cpd1 vs. DMSO, and competition with free (+)-JQ1 in Cpd1 vs. Cpd1+10 μM (+)-JQ1, (FIG. 2A, FIG. 6). […] Additionally, identified hit proteins at 1-4 hrs also included many known BET interactors, such as proteins found in components of the Pol II productive elongation complex subunit P-TEFb, the TFILD complex, and the Nucleosome Remodeling Deacetylase (NuRD) complex, as well as known BRD4 direct-binder Histone H4. […] To test this hypothesis the hits were compared to an extensive BET protein interactome reference dataset identified using AP/MS and proximity labelling coupled to mass spectrometry with and without (+)-JQ1. The BioTAC system afforded significant enrichment and off-competition (P<0.0001, one-way ANOVA) of identified reference interactors at the 4 h time point (FIG. 2B). Next it was asked whether the inverse could be performed, enriching complex members identified by Lambert et al. Mol Cell 73, 621-638 e617 (2019) directly from the data without any a priori knowledge of known interactors. It was discovered that 60% of the statistically significant enriched and (+)-JQ1 rescued hits were also present in the Lambert dataset. This observation falls greater than 7 standard deviations above a random bootstrap analysis of the data without filtering for significant enrichment and (+)-JQ1 rescue (FIG. 2C).
(§3) 9 million HEK293 cells were plated into 15 cm dishes containing 12 mL of complete media (DMEM, 10% FBS, 1% pen/strep) and incubated overnight. Cells were transiently transfected with 1 mL of OptiMEM media containing 10 μg of BioTAC plasmid and 30 μL of TransIT-2020 transfection reagent for 24 hr. Following a media change, cells were optionally pre-treated with parental molecules for 10 min, then treated with bifunctional compound for 10 min, and finally labeled in 100 μM biotin for 30 min, 1 hr, or 4 hrs. Cells were washed 5 times with DPBS then harvested by scraping on ice into 1.5 mL tubes. […] Lysates were clarified by centrifuging at 16,000×g for 10 min and protein concentration determined by BCA assay. […]

[2] = test system: BRD2, BRD3 and BRD4 (BET proteins) and interactors; assay: as above; format: cell-based
Method: as §1, §2, §3

BRD2, BRD3 and BRD4 (BET proteins) and interactors (Homo sapiens, UniProt P25440), sequence (P25440 whole entry): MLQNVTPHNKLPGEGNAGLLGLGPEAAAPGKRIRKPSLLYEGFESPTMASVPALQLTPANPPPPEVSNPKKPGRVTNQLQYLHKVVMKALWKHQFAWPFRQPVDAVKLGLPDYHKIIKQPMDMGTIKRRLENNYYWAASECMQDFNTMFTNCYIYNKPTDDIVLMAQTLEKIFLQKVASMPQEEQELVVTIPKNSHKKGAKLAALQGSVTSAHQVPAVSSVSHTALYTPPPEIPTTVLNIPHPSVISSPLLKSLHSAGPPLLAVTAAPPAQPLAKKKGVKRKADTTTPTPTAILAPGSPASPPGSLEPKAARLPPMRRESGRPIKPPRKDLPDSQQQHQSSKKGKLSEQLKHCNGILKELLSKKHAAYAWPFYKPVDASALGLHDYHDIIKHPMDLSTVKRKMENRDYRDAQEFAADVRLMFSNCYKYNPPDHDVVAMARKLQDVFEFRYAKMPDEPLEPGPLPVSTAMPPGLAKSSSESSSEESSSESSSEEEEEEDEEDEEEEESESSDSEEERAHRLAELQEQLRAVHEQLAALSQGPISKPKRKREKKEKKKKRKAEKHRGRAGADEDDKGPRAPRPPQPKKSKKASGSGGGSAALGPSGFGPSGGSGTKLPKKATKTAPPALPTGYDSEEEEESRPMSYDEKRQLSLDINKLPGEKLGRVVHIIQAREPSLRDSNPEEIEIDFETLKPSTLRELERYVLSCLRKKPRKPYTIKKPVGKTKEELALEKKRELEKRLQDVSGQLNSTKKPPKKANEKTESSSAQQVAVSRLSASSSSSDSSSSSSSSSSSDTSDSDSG
BRD2, BRD3 and BRD4 (BET proteins) and interactors (Homo sapiens, UniProt P25440), sequence (as listed by the source partner): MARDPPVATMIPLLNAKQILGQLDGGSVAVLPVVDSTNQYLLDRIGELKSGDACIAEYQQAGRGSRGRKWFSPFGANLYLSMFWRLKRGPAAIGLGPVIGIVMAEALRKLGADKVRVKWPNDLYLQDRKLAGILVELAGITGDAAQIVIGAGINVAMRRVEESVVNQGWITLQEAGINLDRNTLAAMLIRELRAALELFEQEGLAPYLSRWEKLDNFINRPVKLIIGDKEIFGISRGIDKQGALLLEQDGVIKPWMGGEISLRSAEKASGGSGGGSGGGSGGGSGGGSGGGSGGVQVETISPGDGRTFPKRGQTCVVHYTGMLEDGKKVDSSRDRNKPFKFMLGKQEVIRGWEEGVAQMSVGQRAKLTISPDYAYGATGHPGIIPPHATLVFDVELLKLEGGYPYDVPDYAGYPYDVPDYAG

## CC[C@H](C(=O)N1CCCC[C@H]1C(=O)O[C@H](CCc1ccc(OC)c(OC)c1)c1ccccc1OCC(=O)NCCOCCOCCOCCNC(=O)C[C@@H]1N=C(c2ccc(Cl)cc2)c2c(sc(C)c2C)-n2c(C)nnc21)c1cc(OC)c(OC)c(OC)c1 [Cpd1, (R)-1-(2-((17-((S)-4-(4-Chlorophenyl)-2,3,9-trimethyl-6H-thieno[3,2-f][1,2,4]triazolo[4,3-a][1,4]diazepin-6-yl)-2,16-dioxo-6,9,12-trioxa-3,15-diazaheptadecyl)oxy)phenyl)-3-(3,4-dimethoxyphenyl)propyl (S)-1-((S)-2-(3,4,5-trimethoxyphenyl)butanoyl)piperidine-2-carboxylate]
[1]
  detection of BRD2 (proteomics): detected
[2]; 1 μM with DMSO, 10 μM or 100 μM (+)-JQ1, FC>3, P<0.05
  identification of BET-containing complexes (proteomics heatmap): identifies known BET-containing complexes
[2]; 1 μM, 30 min, 1 h and 4 h, vs DMSO and +10 μM (+)-JQ1, FC>2, P<0.05
  enrichment and off-competition of BRD3 and BRD4 (time course proteomics): significantly enriched and off-competed at all time points
[2]; 4 hr time point, P<0.0001, 1-way ANOVA
  fold-change of reference BRD2, BRD3 and BRD4 interactors (Lambert et al.), rescue by (+)-JQ1: statistically significant rescue
[2]; HEK293, 1 μM, 100 μM biotin, 30 min, vs DMSO and 10 μM (+)-JQ1 off-compete
  enrichment of BRD3 and BRD4 among biotinylated proteins (proteomics): Highly selective enrichment of known (+)-JQ1 targets BRD3 and BRD4; also recorded: significant enrichment of BRD3 and BRD4
